Test results from patent US7834008B2, “Cyclopropyl derivatives as NK3 receptor antagonists” (H. Lundbeck A/S, priority 2003, dated 2010).

Target: T1, human NK3 receptor (Homo sapiens, UniProt P29371)
T1 construct: expressed in transfected cells
T1 sequence (P29371 1-465): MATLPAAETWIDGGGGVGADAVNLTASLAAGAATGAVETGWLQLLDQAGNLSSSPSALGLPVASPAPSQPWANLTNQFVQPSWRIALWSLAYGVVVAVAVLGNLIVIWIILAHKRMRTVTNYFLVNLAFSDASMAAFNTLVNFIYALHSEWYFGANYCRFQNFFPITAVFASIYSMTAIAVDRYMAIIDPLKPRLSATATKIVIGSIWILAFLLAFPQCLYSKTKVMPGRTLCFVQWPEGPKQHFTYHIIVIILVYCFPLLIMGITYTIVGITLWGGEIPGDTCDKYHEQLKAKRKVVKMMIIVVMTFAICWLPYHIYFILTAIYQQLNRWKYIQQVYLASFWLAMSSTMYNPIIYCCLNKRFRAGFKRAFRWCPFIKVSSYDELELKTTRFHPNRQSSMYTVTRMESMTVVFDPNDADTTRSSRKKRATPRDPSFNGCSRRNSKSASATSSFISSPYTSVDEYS
Assay: Fluorometric Imaging Plate Reader (FLIPR) calcium assay, antagonist test against NKB
Format: cell-based
Details: BHK cells stably expressing the human NK3 receptor, EC85 of NKB (app. 1 nM)
Protocol: The Fluorometric Imaging Plate Reader (FLIPR) assay: The compounds were analysed for efficacy profile in FLIPR assays similar to assays described in Jerman, J C et al: Eur J Pharmacol. 2001, 414, p 23-30. BHK cells (cf. Example 20) stably expressing the human NK3 receptor were seeded in 100 μl media in black walled clear-base 96-wells plates (Costar) aiming at a confluency of 95-100% at the day of assay. The assay was performed according to the calcium assay kit (Molecular Devices). Briefly, the calcium assay reagent was dissolved in Hanks BSS (HBSS) buffer, pH 7.4 containing 20 mM Hepes and 2.5 mM probinicid. An equal volume (100 μl) of the calcium assay reagent solution was added to the wells and the plates were incubated for 60 min at 37° C. The plates were subsequently placed in the FLIPR for examination of fluorescence.
Compounds were diluted in HBSS buffer containing 20 mM Hepes prior to test. For test of agonist activity 50 μl of compound was added to the wells and the plates were analysed for 3 minutes in the FLIPR. For test of antagonist activity, 25 μl of compound was added to the wells and the plate was analysed for a 5 minute period. Subsequently, the wells were added 25 μl of an EC85 (final concentration) of NKB (app. 1 nM) previously determined from a dose-response curve with NKB. The plates were subsequently read for 3 minutes before termination. As controls, selected wells on all plates were added only 100 nM of the NK3 receptor agonist NKB or 2 μM of the calcium ionophor ionomycin. The maximal increase in fluorescence over background following each ligand addition was determined and analysed.
For CC(=O)N1CC2(CCN(C[C@@H]3C[C@@]3(C(=O)N(C)Cc3ccc(F)cc3)c3ccccc3)CC2)c2ccccc21 [Compound 23a], the “inhibition of the NKB-mediated activation of the NK3 receptor” value (“inhibition” below) was “inhibited the NKB-mediated activation of the NK3 receptor”.
With CC(=O)N1CC2(CCN(C[C@@H]3C[C@@]3(C(=O)N(C)Cc3ccc(F)cc3)c3ccccc3)CC2)c2cc(F)ccc21 [Compound 25a] the “inhibition” value was “inhibited the NKB-mediated activation of the NK3 receptor”.
In the case of CC(=O)N1CC2(CCN(C[C@@H]3C[C@@]3(C(=O)N(C)Cc3ccc(F)cc3)c3ccc(F)cc3)CC2)c2cc(F)ccc21 [Compound 32a], the “inhibition” value is reported as “inhibited the NKB-mediated activation of the NK3 receptor”.
With CN(Cc1ccc(F)cc1)C(=O)[C@@]1(c2ccccc2)C[C@H]1CN1CCC(C(=O)N2CCCCC2)(c2ccccc2)CC1 [Compound 42a, (1S,2R)-1-Phenyl-2-[4-phenyl-4-(piperidine-1-carbonyl)-piperidin-1-ylmethyl]-cyclopropanecarboxylic acid (4-fluoro-benzyl)-methyl-amide] the “inhibition” value was “inhibited the NKB-mediated activation of the NK3 receptor”.
With CC(=O)NC1(c2ccccc2)CCN(C[C@@H]2C[C@@]2(C(=O)N(C)Cc2ccc(F)cc2)c2ccc(Cl)cc2)CC1 [Compound 44a, (1S,2R)-2-(4-Acetylamino-4-phenyl-piperidin-1-ylmethyl)-1-(4-chloro-phenyl)-cyclopropanecarboxylic acid (4-fluoro-benzyl)-methyl-amide] the “inhibition” value was “inhibited the NKB-mediated activation of the NK3 receptor”.
In the case of CC(=O)NC1(c2ccccc2)CCN(C[C@@H]2C[C@@]2(C(=O)N(C)Cc2ccccc2Cl)c2ccc(Cl)cc2)CC1 [Compound 45a, (1S,2R)-2-(4-Acetylamino-4-phenyl-piperidin-1-ylmethyl)-1-(4-chloro-phenyl)-cyclopropanecarboxylic acid (2-chloro-benzyl)-methyl-amide], the “inhibition” value is reported as “inhibited the NKB-mediated activation of the NK3 receptor”.
In the case of “(1S,2R)-1-(3,4-Difluoro-phenyl)-2-[4-phenyl-4-(piperidine-1-carbonyl)-piperidin-1-ylmethyl]-cyclopropanecarboxylic acid-methyl-amide [Compound 33a]”, the “inhibition” value is reported as “inhibited the NKB-mediated activation of the NK3 receptor”.

System: not given
Assay: not given
Details: in particular positive symptoms; cited from earlier work
In the case of CC(=O)N(C)C1(c2ccccc2)CCN(CCC[C@]2(c3ccc(Cl)c(Cl)c3)CCCN(C(=O)c3ccccc3)C2)CC1 [SR142801], the effect against schizophrenia is listed as “has effect against schizophrenia”.
